# From US20020192703A1, “Immunoassay reagents and methods for determination of LSD and LSD metabolites” (priority 1995, published 2002)
# Like-named read-outs stand apart in the source and are kept apart here.
# Tested on: monoclonal antibody 19A7
# Assay type: binding, mice
# Experimental: Cross-reactivity was tested by spiking various potential cross-reactants into human urine containing a preservative.
# [1] = Concentration Added 10,000 ng/ml, 100 × observed dose / concentration added
# [2] = Concentration Added 10,000 ng/ml, in human urine
# [3] = Concentration Added 500,000 ng/ml, 100 × observed dose / concentration added
# [4] = Concentration Added 500,000 ng/ml, in human urine
# [5] = Concentration Added 100,000 ng/ml, 100 × observed dose / concentration added
# [6] = Concentration Added 100,000 ng/ml, in human urine
structure (smiles),measurement,setting,value
CCN(CC)C(=O)[C@@H]1C=C2c3cccc4c3C(O)(C[C@H]2N(C)C1)C(=O)N4 (stereo partly drawn) [2oxo-3hydroxy LSD],% Cross-Reactivity,"Concentration Added 30 ng/ml, 100 × observed dose / concentration added",1.82%
same,Concentration Observed,"Concentration Added 30 ng/ml, in human urine",0.55 ng/mL
CCCCCc1cc(O)c2c(c1)OC(C)(C)[C@@H]1CCC(C(=O)O)=C[C@@H]21 [11-nor-Δ^9-THC-COOH],% Cross-Reactivity,[1],<0.0001%
same,Concentration Observed,[2],0.0 ng/mL
CC(=O)Oc1ccccc1C(=O)O [Acetylsalicylic Acid],% Cross-Reactivity,[3],<0.00001%
same,Concentration Observed,[4],0.0 ng/mL
CC(C)C[C@H]1C(=O)N2CCC[C@H]2[C@]2(O)O[C@](NC(=O)[C@@H]3C=C4c5cccc6[nH]cc(c56)C[C@H]4N(C)C3)(C(C)C)C(=O)N12 [Alpha Ergotryptine],% Cross-Reactivity,[3],0.00000%
same,Concentration Observed,[4],0.25 ng/mL
CC1(C)S[C@@H]2[C@H](NC(=O)[C@H](N)c3ccc(O)cc3)C(=O)N2[C@H]1C(=O)O [Amoxicillin],% Cross-Reactivity,,<0.00001%
same,Concentration Observed,,0.0 ng/mL
CC(N)Cc1ccccc1 (stereo not drawn) [Amphetamine],% Cross-Reactivity,[3],<0.00001%
same,Concentration Observed,[4],0.0 ng/mL
CN1[C@H]2CC[C@@H]1[C@@H](C(=O)O)[C@@H](OC(=O)c1ccccc1)C2 [Benzoylecgonine],% Cross-Reactivity,[3],<0.00001%
same,Concentration Observed,[4],0.0 ng/mL
C[C@H](CS)C(=O)N1CCC[C@H]1C(=O)O [Captopril],% Cross-Reactivity,[3],<0.00001%
same,Concentration Observed,[4],0.0 ng/mL
CN/C(=N/CCSCc1nc[nH]c1C)NC#N [Cimetidine],% Cross-Reactivity,,<0.00001%
same,Concentration Observed,,0.0 ng/mL
COc1ccc2c3c1O[C@H]1[C@@H](O)C=C[C@H]4[C@@H](C2)N(C)CC[C@@]341 [Codeine],% Cross-Reactivity,[3],<0.00001%
same,Concentration Observed,[4],0.0 ng/mL
CN1C(=O)CN=C(c2ccccc2)c2cc(Cl)ccc21 [Diazepam],% Cross-Reactivity,,<0.00001%
same,Concentration Observed,,0.0 ng/mL
C[C@H]1O[C@@H](O[C@H]2[C@@H](O)C[C@H](O[C@H]3[C@@H](O)C[C@H](O[C@H]4CC[C@@]5(C)[C@H](CC[C@@H]6[C@@H]5C[C@@H](O)[C@]5(C)[C@@H](C7=CC(=O)OC7)CC[C@]65O)C4)O[C@@H]3C)O[C@@H]2C)C[C@H](O)[C@@H]1O [Digoxin],% Cross-Reactivity,[5],<0.00001%
same,Concentration Observed,[6],0.0 ng/mL
CN1C[C@H](C(=O)N[C@]2(C)O[C@@]3(O)[C@@H]4CCCN4C(=O)[C@H](Cc4ccccc4)N3C2=O)C[C@@H]2c3cccc4[nH]cc(c34)C[C@H]21 [Dihydroergotaimine],% Cross-Reactivity,"Concentration Added 125,000 ng/ml, 100 × observed dose / concentration added",0.00005%
same,Concentration Observed,"Concentration Added 125,000 ng/ml, in human urine",≦0.01 ng/mL
COC(=O)[C@@H]1[C@H]2CC[C@@H](C[C@@H]1O)N2C [Ecogonine Methyl Ester],% Cross-Reactivity,[5],0.00000%
same,Concentration Observed,[6],≦0.01 ng/mL
CN1[C@H]2CC[C@@H]1[C@@H](C(=O)O)[C@@H](O)C2 [Ecogonine],% Cross-Reactivity,[5],0.00000%
same,Concentration Observed,[6],≦0.01 ng/mL
CCOC(=O)[C@H](CCc1ccccc1)N[C@@H](C)C(=O)N1CCC[C@H]1C(=O)O [Enalapril],% Cross-Reactivity,[3],<0.00001%
same,Concentration Observed,[4],0.0 ng/mL
C[C@@H](CO)NC(=O)[C@@H]1C=C2c3cccc4[nH]cc(c34)C[C@H]2N(C)C1 [Ergonovine],% Cross-Reactivity,[1],0.007%
same,Concentration Observed,[2],0.58 ng/mL
CN1C[C@H](C(=O)N[C@]2(C)O[C@@]3(O)[C@@H]4CCCN4C(=O)[C@H](Cc4ccccc4)N3C2=O)C=C2c3cccc4[nH]cc(c34)C[C@H]21 [Ergotamine],% Cross-Reactivity,[5],0.00000%
same,Concentration Observed,[6],≦0.01 ng/mL
CNCCC(Oc1ccc(C(F)(F)F)cc1)c1ccccc1 (stereo not drawn) [Fluoxetine],% Cross-Reactivity,"Concentration Added 400000 ng/mL, 100 × observed dose / concentration added",0.00012%
same,Concentration Observed,"Concentration Added 400000 ng/mL, in human urine",0.48 ng/mL
CC(C)Cc1ccc(C(C)C(=O)O)cc1 (stereo not drawn) [Ibuprofen],% Cross-Reactivity,[3],<0.00001%
same,Concentration Observed,[4],0.0 ng/mL
CCN(CC)C(=O)[C@H]1C=C2c3cccc4[nH]cc(c34)C[C@H]2N(C)C1 [Iso LSD],% Cross-Reactivity,"Concentration Added 2,500 ng/ml, 100 × observed dose / concentration added",0.04%
same,Concentration Observed,"Concentration Added 2,500 ng/ml, in human urine",0.93 ng/mL
